{"source": "ChEMBL document CHEMBL5528031", "about": "“Synthesis and antitumor activity of cyclopentane-fused anthraquinone derivatives” (Eur J Med Chem, 2024)"}
{"system": "CAPAN-1", "test": "Antiproliferative activity against human CAPAN-1 cells assessed as inhibition of cell growth incubated for 72 hrs by MTT assay", "assay_type": "functional, cell-based", "conditions": "CAPAN-1, 72 h", "units": {"IC50": "nM"}}
{"molecule": "N[C@H]1CC[C@H](NC(=O)C2Cc3c(O)c4c(c(O)c3C2)C(=O)c2ccccc2C4=O)CC1", "IC50": 1900}
{"molecule": "O=C1c2ccccc2C(=O)c2c(O)c3c(c(O)c21)CC(C(=O)NC1CCNCC1)C3", "IC50": 1700}
{"molecule": "NC1CCCN(C(=O)C2Cc3c(O)c4c(c(O)c3C2)C(=O)c2ccccc2C4=O)C1", "note": "(configuration not stated)", "IC50": 1000}
{"molecule": "N[C@@H]1CN(C(=O)C2Cc3c(O)c4c(c(O)c3C2)C(=O)c2ccccc2C4=O)C[C@H]1N", "IC50": 1700}
{"system": "HCT-116", "test": "Antiproliferative activity against human HCT-116 cells assessed as inhibition of cell growth incubated for 72 hrs by MTT assay", "assay_type": "functional, cell-based", "conditions": "HCT-116, 72 h", "units": {"IC50": "nM"}}
{"molecule": "N[C@H]1CC[C@H](NC(=O)C2Cc3c(O)c4c(c(O)c3C2)C(=O)c2ccccc2C4=O)CC1", "IC50": 2100}
{"molecule": "O=C1c2ccccc2C(=O)c2c(O)c3c(c(O)c21)CC(C(=O)NC1CCNCC1)C3", "IC50": 1000}
{"molecule": "NC1CCCN(C(=O)C2Cc3c(O)c4c(c(O)c3C2)C(=O)c2ccccc2C4=O)C1", "note": "(configuration not stated)", "IC50": 3200}
{"molecule": "N[C@@H]1CN(C(=O)C2Cc3c(O)c4c(c(O)c3C2)C(=O)c2ccccc2C4=O)C[C@H]1N", "IC50": 2000}
{"system": "LN-229", "test": "Antiproliferative activity against human LN-229 cells assessed as inhibition of cell growth incubated for 72 hrs by MTT assay", "assay_type": "functional, cell-based", "conditions": "LN-229, 72 h", "units": {"IC50": "nM"}}
{"molecule": "N[C@H]1CC[C@H](NC(=O)C2Cc3c(O)c4c(c(O)c3C2)C(=O)c2ccccc2C4=O)CC1", "IC50": 4500}
{"molecule": "O=C1c2ccccc2C(=O)c2c(O)c3c(c(O)c21)CC(C(=O)NC1CCNCC1)C3", "IC50": 1400}
{"molecule": "NC1CCCN(C(=O)C2Cc3c(O)c4c(c(O)c3C2)C(=O)c2ccccc2C4=O)C1", "note": "(configuration not stated)", "IC50": 3500}
{"molecule": "N[C@@H]1CN(C(=O)C2Cc3c(O)c4c(c(O)c3C2)C(=O)c2ccccc2C4=O)C[C@H]1N", "IC50": 3900}
{"system": "NCI-H1975", "test": "Antiproliferative activity against human NCI-H1975 cells assessed as inhibition of cell growth incubated for 72 hrs by MTT assay", "assay_type": "functional, cell-based", "conditions": "NCI-H1975, 72 h", "units": {"IC50": "nM"}}
{"molecule": "N[C@H]1CC[C@H](NC(=O)C2Cc3c(O)c4c(c(O)c3C2)C(=O)c2ccccc2C4=O)CC1", "IC50": 6500}
{"molecule": "O=C1c2ccccc2C(=O)c2c(O)c3c(c(O)c21)CC(C(=O)NC1CCNCC1)C3", "IC50": 1800}
{"molecule": "NC1CCCN(C(=O)C2Cc3c(O)c4c(c(O)c3C2)C(=O)c2ccccc2C4=O)C1", "note": "(configuration not stated)", "IC50": 4600}
{"molecule": "N[C@@H]1CN(C(=O)C2Cc3c(O)c4c(c(O)c3C2)C(=O)c2ccccc2C4=O)C[C@H]1N", "IC50": 3800}
{"system": "Z-138", "test": "Antiproliferative activity against human Z138 cells assessed as inhibition of cell growth incubated for 72 hrs by MTT assay", "assay_type": "functional, cell-based", "conditions": "Z-138, 72 h", "units": {"IC50": "nM"}}
{"molecule": "N[C@H]1CC[C@H](NC(=O)C2Cc3c(O)c4c(c(O)c3C2)C(=O)c2ccccc2C4=O)CC1", "IC50": 2600}
{"molecule": "O=C1c2ccccc2C(=O)c2c(O)c3c(c(O)c21)CC(C(=O)NC1CCNCC1)C3", "IC50": 3100}
{"molecule": "NC1CCCN(C(=O)C2Cc3c(O)c4c(c(O)c3C2)C(=O)c2ccccc2C4=O)C1", "note": "(configuration not stated)", "IC50": 2200}
{"molecule": "N[C@@H]1CN(C(=O)C2Cc3c(O)c4c(c(O)c3C2)C(=O)c2ccccc2C4=O)C[C@H]1N", "IC50": 2600}
{"system": "not listed separately", "test": "Antiproliferative activity against human DND41 cells assessed as inhibition of cell growth incubated for 72 hrs by MTT assay", "assay_type": "functional, cell-based", "conditions": "DND41, 72 h", "units": {"IC50": "nM"}}
{"molecule": "N[C@H]1CC[C@H](NC(=O)C2Cc3c(O)c4c(c(O)c3C2)C(=O)c2ccccc2C4=O)CC1", "IC50": 2500}
{"molecule": "O=C1c2ccccc2C(=O)c2c(O)c3c(c(O)c21)CC(C(=O)NC1CCNCC1)C3", "IC50": 2000}
{"molecule": "NC1CCCN(C(=O)C2Cc3c(O)c4c(c(O)c3C2)C(=O)c2ccccc2C4=O)C1", "note": "(configuration not stated)", "IC50": 1500}
{"molecule": "N[C@@H]1CN(C(=O)C2Cc3c(O)c4c(c(O)c3C2)C(=O)c2ccccc2C4=O)C[C@H]1N", "IC50": 2300}
{"system": "HL-60", "test": "Antiproliferative activity against human HL-60 cells assessed as inhibition of cell growth incubated for 72 hrs by MTT assay", "assay_type": "functional, cell-based", "conditions": "HL-60, 72 h", "units": {"IC50": "nM"}}
{"molecule": "N[C@H]1CC[C@H](NC(=O)C2Cc3c(O)c4c(c(O)c3C2)C(=O)c2ccccc2C4=O)CC1", "IC50": 2700}
{"molecule": "O=C1c2ccccc2C(=O)c2c(O)c3c(c(O)c21)CC(C(=O)NC1CCNCC1)C3", "IC50": 1500}
{"molecule": "NC1CCCN(C(=O)C2Cc3c(O)c4c(c(O)c3C2)C(=O)c2ccccc2C4=O)C1", "note": "(configuration not stated)", "IC50": 1900}
{"molecule": "N[C@@H]1CN(C(=O)C2Cc3c(O)c4c(c(O)c3C2)C(=O)c2ccccc2C4=O)C[C@H]1N", "IC50": 2800}
{"system": "K562", "test": "Antiproliferative activity against human K562 cells assessed as inhibition of cell growth incubated for 72 hrs by MTT assay", "assay_type": "functional, cell-based", "conditions": "K562, 72 h", "units": {"IC50": "nM"}}
{"molecule": "N[C@H]1CC[C@H](NC(=O)C2Cc3c(O)c4c(c(O)c3C2)C(=O)c2ccccc2C4=O)CC1", "IC50": 2000}
{"molecule": "O=C1c2ccccc2C(=O)c2c(O)c3c(c(O)c21)CC(C(=O)NC1CCNCC1)C3", "IC50": 1600}
{"molecule": "NC1CCCN(C(=O)C2Cc3c(O)c4c(c(O)c3C2)C(=O)c2ccccc2C4=O)C1", "note": "(configuration not stated)", "IC50": 1700}
{"molecule": "N[C@@H]1CN(C(=O)C2Cc3c(O)c4c(c(O)c3C2)C(=O)c2ccccc2C4=O)C[C@H]1N", "IC50": 2800}
{"system": "not listed separately", "test": "Antiproliferative activity against multidrug resistant human K562/4 cells expressing P-gp assessed as inhibition of cell growth incubated for 72 hrs by MTT assay", "assay_type": "functional, cell-based", "conditions": "K562/4, 72 h", "units": {"IC50": "nM"}}
{"molecule": "N[C@H]1CC[C@H](NC(=O)C2Cc3c(O)c4c(c(O)c3C2)C(=O)c2ccccc2C4=O)CC1", "IC50": 8800}
{"molecule": "O=C1c2ccccc2C(=O)c2c(O)c3c(c(O)c21)CC(C(=O)NC1CCNCC1)C3", "IC50": 4500}
{"molecule": "NC1CCCN(C(=O)C2Cc3c(O)c4c(c(O)c3C2)C(=O)c2ccccc2C4=O)C1", "note": "(configuration not stated)", "IC50": 1200}
{"molecule": "N[C@@H]1CN(C(=O)C2Cc3c(O)c4c(c(O)c3C2)C(=O)c2ccccc2C4=O)C[C@H]1N", "IC50": 35000}
{"system": "not listed separately", "test": "Cytotoxicity against hFB-hTERT6 cells assessed as inhibition of cell growth incubated for 72 hrs by MTT assay", "assay_type": "toxicity, cell-based", "conditions": "human", "units": {"IC50 at 72 h": "nM"}}
{"molecule": "N[C@H]1CC[C@H](NC(=O)C2Cc3c(O)c4c(c(O)c3C2)C(=O)c2ccccc2C4=O)CC1", "IC50 at 72 h": 4500}
{"molecule": "O=C1c2ccccc2C(=O)c2c(O)c3c(c(O)c21)CC(C(=O)NC1CCNCC1)C3", "IC50 at 72 h": 4500}
{"molecule": "NC1CCCN(C(=O)C2Cc3c(O)c4c(c(O)c3C2)C(=O)c2ccccc2C4=O)C1", "note": "(configuration not stated)", "IC50 at 72 h": 4000}
{"molecule": "N[C@@H]1CN(C(=O)C2Cc3c(O)c4c(c(O)c3C2)C(=O)c2ccccc2C4=O)C[C@H]1N", "IC50 at 72 h": 23000}
{"system": "Calf thymus DNA", "test": "Binding affinity to calf thymus DNA assessed as binding constant at 10 uM by fluorescence spectroscopy analysis", "assay_type": "nucleic-acid assay", "conditions": "Bos taurus"}
{"molecule": "N[C@@H]1CN(C(=O)C2Cc3c(O)c4c(c(O)c3C2)C(=O)c2ccccc2C4=O)C[C@H]1N", "Kb": "0.31 10^6/M"}
{"system": "Calf thymus DNA", "test": "Binding affinity to calf thymus DNA assessed as dissociation constant at 10 uM by fluorescence spectroscopy analysis", "assay_type": "nucleic-acid assay, Bos taurus", "conditions": "not given", "units": {"Kd": "nM"}}
{"molecule": "N[C@@H]1CN(C(=O)C2Cc3c(O)c4c(c(O)c3C2)C(=O)c2ccccc2C4=O)C[C@H]1N", "Kd": 3200}
